Laboratory results taken from patent US9131690B2, “Macrocyclic picolinamides as fungicides” (Dow AgroSciences LLC, priority 2012, dated 2015).
Read-outs that look alike come from different tables or passages of the source.

How the values were obtained:
[1] = test system: Mycosphaerella graminicola; Anamorph: Septoria tritici; experiment: Fungicidal activity: Leaf Blotch of Wheat (SEPTTR), wheat plants variety Yuma; type: in vivo; design: key to SEPTTR 3DC Disease Control: A: 50-100; B: More than 0-Less than 50; C: Not Tested; D: No activity noticed in this bioassay; conditions: for pest or weed control at 100 ppm: Zymoseptoria tritici; for SEPTTR 3DC Disease Control: 100 ppm
Procedure: Evaluation of Fungicidal Activity: Leaf Blotch of Wheat (Mycosphaerella graminicola; Anamorph: Septoria tritici; Bayer Code […]) Wheat plants (variety Yuma) were grown from seed in a greenhouse in 50% mineral soil/50% soil-less Metro mix until the first leaf was fully emerged, with 7-10 seedlings per pot. These plants were inoculated with an aqueous spore suspension of Septoria tritici either prior to or after fungicide treatments. After inoculation the plants were kept in 100% relative humidity (one day in a dark dew chamber followed by two to three days in a lighted dew chamber) to permit spores to germinate and infect the leaf. The plants were then transferred to a greenhouse at 20° C. for disease to develop.

[2] = test system: Puccinia triticina. Synonym: Puccinia recondite f. sp. tritici; experiment: Fungicidal activity: Wheat Brown Rust (PUCCRT), wheat plants variety Yuma; type: in vivo; design: key to PUCCRT 3DC Disease Control: A: 50-100; B: More than 0-Less than 50; C: Not Tested; D: No activity noticed in this bioassay; conditions: for PUCCRT 3DC Disease Control: 100 ppm; for pest or weed control at 100 ppm: Puccinia triticina
Procedure: Evaluation of Fungicidal Activity: Wheat Brown Rust (Puccinia triticina. Synonym: Puccinia recondite f. sp. tritici; Bayer Code PUCCRT) Wheat plants (variety Yuma) were grown from seed in a greenhouse in 50% mineral soil/50% soil-less Metro mix until the first leaf was fully emerged, with 7-10 seedlings per pot. These plants were inoculated with an aqueous spore suspension of Puccinia recondite f. sp. tritici either prior to or after fungicide treatments. After inoculation the plants were kept in 100% relative humidity overnight to permit spores to germinate and infect the leaf. The plants were then transferred to a greenhouse set at 24 C for disease to develop.

[3] = 24 h, 1 Day Protectant, read-out: SEPTTR 1DP Disease Control
[4] = 72 h, 3 Day Curative, read-out: SEPTTR 3DC Disease Control
[5] = 24 h, 1 Day Protectant, read-out: PUCCRT 1DP Disease Control
[6] = 72 h, 3 Day Curative, read-out: PUCCRT 3DC Disease Control

SMILES	melting point	pest or weed control at 100 ppm [1, 3]	pest or weed control at 100 ppm [1, 4]	PUCCRT 3DC Disease Control ([2]; 3 Day Curative)	pest or weed control at 100 ppm [2, 5]	pest or weed control at 100 ppm [2, 6]	SEPTTR 3DC Disease Control ([1]; 3 Day Curative)
COc1ccnc(C(=O)N[C@H]2COC(=O)[C@H](CCn3cc(-c4cccc(Cl)c4)nn3)[C@@H](OC(=O)C(C)C)[C@H](C)OC2=O)c1O [Compound 54, (3S,6S,7R,8R)-8-(2-(4-(3-chlorophenyl)-1H-1,2,3-triazol-1-yl)ethyl)-3-(3-hydroxy-4 methoxypicolinamido)-6-methyl-4,9-dioxo-1,5-dioxonan-7-yl isobutyrate]	222 to 224 °C	50 to 100%	0 to 50%	D	50 to 100%		
COc1ccnc(C(=O)N[C@H]2COC(=O)[C@H](Cc3cncnc3)[C@@H](OC(=O)C(C)C)[C@H](C)OC2=O)c1O [Compound 14]	169 to 175 °C	0 to 50%	0 to 50%		50 to 100%	50 to 100%	
COc1ccnc(C(=O)N[C@H]2COC(=O)[C@H](Cc3ccc(C(F)(F)F)cc3)[C@@H](OC(=O)C(C)C)[C@H](C)OC2=O)c1OC(C)=O [Compound 67]	127 to 134 °C	0 to 50%			50 to 100%	50 to 100%	D
COc1ccnc(C(=O)N[C@H]2COC(=O)[C@H](CCOC(=O)c3c(F)c(F)c(F)c(F)c3F)[C@@H](OC(=O)C(C)C)[C@H](C)OC2=O)c1O [Compound 43]	167 to 168 °C	50 to 100%	0 to 50%		50 to 100%	0 to 50%	
COc1ccnc(C(=O)N[C@H]2COC(=O)[C@H](Cc3cccnc3)[C@@H](OC(=O)C(C)C)[C@H](C)OC2=O)c1OCOC(=O)C(C)C [Compound 23]	171 to 174 °C	0 to 50%	0 to 50%		50 to 100%	50 to 100%	
COc1ccnc(C(=O)N[C@H]2COC(=O)[C@H](CC3CCCCC3)[C@@H](OC(=O)C(C)C)[C@H](C)OC2=O)c1O [Compound 61, (3S,6S,7R,8R)-8-(cyclohexylmethyl)-3-(3-hydroxy-4-methoxypicolinamido)-6-methyl-4,9-dioxo-1,5-dioxonan-7-yl isobutyrate]	188 to 189 °C	50 to 100%	50 to 100%		50 to 100%	0 to 50%	
COc1ccnc(C(=O)N[C@H]2COC(=O)[C@H](Cc3ccc(C)cc3)[C@@H](OC(=O)C(C)C)[C@H](C)OC2=O)c1O [Compound 4]	175 to 179 °C	50 to 100%	0 to 50%		50 to 100%	0 to 50%	
COc1ccnc(C(=O)N[C@H]2COC(=O)[C@H](C)[C@@H](OC(=O)C(C)C)[C@H](C)OC2=O)c1O [Compound 46, (3S,6S,7R,8R)-3-(3-hydroxy-4-methoxypicolinamido)-6,8-dimethyl-4,9-dioxo-1,5-dioxonan-7-yl isobutyrate]	198 to 200 °C	50 to 100%			50 to 100%	0 to 50%	D
CCCC/C=C/C[C@H]1C(=O)OC[C@H](NC(=O)c2nccc(OC)c2O)C(=O)O[C@@H](C)[C@@H]1OC(=O)C(C)C [Compound 18]	146 to 148 °C	50 to 100%	0 to 50%	D	50 to 100%		
COc1ccnc(C(=O)N[C@H]2COC(=O)[C@H](CCOC(=O)c3ccc(-c4ccccc4)cc3)[C@@H](OC(=O)C(C)C)[C@H](C)OC2=O)c1O [Compound 40]	178 to 179 °C	50 to 100%	0 to 50%	D	50 to 100%		
CCC[C@H]1C(=O)OC[C@H](NC(=O)c2nccc(OC)c2O)C(=O)O[C@@H](C)[C@@H]1OC(=O)C(C)C [Compound 64]	165 to 168 °C	50 to 100%	50 to 100%		50 to 100%	0 to 50%	
COc1ccnc(C(=O)N[C@H]2COC(=O)[C@H](CCOC(=O)c3ccc(C(F)(F)F)cc3)[C@@H](OC(=O)C(C)C)[C@H](C)OC2=O)c1OC(C)=O [Compound 68]	199 to 200 °C	0 to 50%	0 to 50%		0 to 50%	0 to 50%	
CCCCCCC[C@H]1C(=O)OC[C@H](NC(=O)c2nccc(OC)c2O)C(=O)O[C@@H](C)[C@@H]1OC(=O)C(C)C [Compound 63, (3S,6S,7R,8R)-8-heptyl-3-(3-hydroxy-4-methoxypicolinamido)-6-methyl-4,9-dioxo-1,5-dioxonan-7-yl isobutyrate]	131 to 134 °C	50 to 100%	0 to 50%	D	50 to 100%		
COc1ccnc(C(=O)N[C@H]2COC(=O)[C@H](CC(F)F)[C@@H](OC(=O)C(C)C)[C@H](C)OC2=O)c1O [Compound 52, (3S,6S,7R,8R)-8-(2,2-difluoroethyl)-3-(3-hydroxy-4-methoxypicolinamido)-6-methyl-4,9-dioxo-1,5-dioxonan-7-yl isobutyrate]	195 to 196 °C	50 to 100%	0 to 50%		50 to 100%	0 to 50%	
COc1ccnc(C(=O)N[C@H]2COC(=O)[C@H](CCOC=O)[C@@H](OC(=O)C(C)C)[C@H](C)OC2=O)c1O [Compound 51, (3S,6S,7R,8R)-8-(2-(formyloxy)ethyl)-3-(3-hydroxy-4-methoxypicolinamido)-6-methyl-4,9-dioxo-1,5-dioxonan-7-yl isobutyrate]	103 to 105 °C	0 to 50%	0 to 50%	D	50 to 100%		

Now from value to compound, other results behind:

melting point	SMILES	pest or weed control at 100 ppm [1, 3]	pest or weed control at 100 ppm [1, 4]	PUCCRT 3DC Disease Control ([2]; 3 Day Curative)	pest or weed control at 100 ppm [2, 5]	pest or weed control at 100 ppm [2, 6]	SEPTTR 3DC Disease Control ([1]; 3 Day Curative)
186 to 191 °C	COc1ccnc(C(=O)N[C@H]2COC(=O)[C@H](CI)[C@@H](OC(=O)C(C)C)[C@H](C)OC2=O)c1O [Compound 11]	50 to 100%	0 to 50%		50 to 100%	50 to 100%	
138 to 140 °C	COC(=O)C[C@H]1C(=O)OC[C@H](NC(=O)c2nccc(OC)c2O)C(=O)O[C@@H](C)[C@@H]1OC(=O)C(C)C [Compound 50]	50 to 100%	50 to 100%		50 to 100%	50 to 100%	
182 to 186 °C	COc1ccnc(C(=O)N[C@H]2COC(=O)[C@H](Cc3cccc(-c4ccccc4)c3)[C@@H](OC(=O)C(C)C)[C@H](C)OC2=O)c1O [Compound 13]	50 to 100%	0 to 50%		50 to 100%	0 to 50%	
183 to 184 °C	COc1ccnc(C(=O)N[C@H]2COC(=O)[C@H](CCc3ccccc3)[C@@H](OC(=O)C(C)C)[C@H](C)OC2=O)c1O [Compound 57, (3S,6S,7R,8R)-3-(3-hydroxy-4-methoxypicolinamido)-6-methyl-4,9-dioxo-8-phenethyl-1,5-dioxonan-7-yl isobutyrate]	50 to 100%	0 to 50%		50 to 100%	50 to 100%	
169 to 170 °C	COc1ccnc(C(=O)N[C@H]2COC(=O)[C@H](CCc3cccnc3)[C@@H](OC(=O)C(C)C)[C@H](C)OC2=O)c1O [Compound 59]	0 to 50%	0 to 50%		50 to 100%	0 to 50%	
193 to 195 °C	CC[C@H]1C(=O)OC[C@H](NC(=O)c2nccc(OC)c2O)C(=O)O[C@@H](C)[C@@H]1OC(=O)C(C)C [Compound 53, (3S,6S,7R,8R)-8-ethyl-3-(3-hydroxy-4-methoxypicolinamido)-6-methyl-4,9-dioxo-1,5-dioxonan-7-yl isobutyrate]	50 to 100%	0 to 50%	D	50 to 100%		
176 to 178 °C	COc1ccnc(C(=O)N[C@H]2COC(=O)[C@H](CC(=O)Oc3ccccc3)[C@@H](OC(=O)C(C)C)[C@H](C)OC2=O)c1O [Compound 48]	50 to 100%	0 to 50%	D	50 to 100%		
